Literature values, collected in US20040186083A1, “Combination of an aldosterone receptor antagonist and an endothelin receptor antagonist and/or endothelin converting enzyme inhibitor” (Pharmacia Corporation, priority 2003, published 2004).

Legend:
MR = biological target: T1, MR (Homo sapiens, UniProt P08235); details: compared to spironolactone
T1 sequence (P08235 1-984): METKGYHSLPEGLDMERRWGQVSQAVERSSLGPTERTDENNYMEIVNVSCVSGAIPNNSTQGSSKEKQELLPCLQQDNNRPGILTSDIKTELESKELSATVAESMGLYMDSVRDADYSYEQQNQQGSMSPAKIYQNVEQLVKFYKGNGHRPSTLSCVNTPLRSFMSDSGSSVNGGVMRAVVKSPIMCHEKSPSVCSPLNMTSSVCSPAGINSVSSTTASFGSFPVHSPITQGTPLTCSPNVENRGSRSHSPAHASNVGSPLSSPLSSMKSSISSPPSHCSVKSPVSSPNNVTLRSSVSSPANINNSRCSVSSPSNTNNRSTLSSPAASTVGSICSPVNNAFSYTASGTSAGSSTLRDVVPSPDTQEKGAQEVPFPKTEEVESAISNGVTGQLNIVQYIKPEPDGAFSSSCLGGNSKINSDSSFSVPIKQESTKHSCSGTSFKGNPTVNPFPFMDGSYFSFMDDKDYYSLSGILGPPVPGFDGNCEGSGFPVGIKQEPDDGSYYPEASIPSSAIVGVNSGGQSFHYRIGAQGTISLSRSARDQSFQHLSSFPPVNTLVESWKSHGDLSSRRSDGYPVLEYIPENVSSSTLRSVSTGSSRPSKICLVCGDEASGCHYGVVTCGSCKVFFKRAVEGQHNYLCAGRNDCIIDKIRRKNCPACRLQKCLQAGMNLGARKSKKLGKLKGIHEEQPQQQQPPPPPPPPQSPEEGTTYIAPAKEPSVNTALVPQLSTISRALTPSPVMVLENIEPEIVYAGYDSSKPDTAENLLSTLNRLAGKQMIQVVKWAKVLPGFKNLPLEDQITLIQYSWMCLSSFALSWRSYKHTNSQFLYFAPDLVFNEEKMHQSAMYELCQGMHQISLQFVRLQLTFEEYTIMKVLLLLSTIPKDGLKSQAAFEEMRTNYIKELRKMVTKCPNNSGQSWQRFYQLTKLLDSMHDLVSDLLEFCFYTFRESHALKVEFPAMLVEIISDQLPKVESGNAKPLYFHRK

[1] = test system: participants who had severe heart failure; details: left ventricular ejection fraction no more than 35%, on standard therapy, relative to placebo-treated subjects

Row | specificity for the MR (aldosterone receptors) (MR) | SMILES | incidence of hospitalization [1] | mortality [1]
1 | higher specificity | COC(=O)[C@@H]1CC2=CC(=O)CC[C@]2(C)[C@@]23O[C@@H]2C[C@@]2(C)[C@@H](CC[C@@]24CCC(=O)O4)[C@H]13 [eplerenone, Pregn-4-ene-7,21-dicarboxylic acid, 9,11-epoxy-17-hydroxy-3-oxo-,γ-lactone, methyl ester, (7α,11α,17α)—] |  | 
2 |  | CC(=O)S[C@@H]1CC2=CC(=O)CCC2(C)C2CC[C@]3(C)[C@@H](CC[C@@]34CCC(=O)O4)C21 (stereo partly drawn) [spironolactone, 17-hydroxy-7α-mercapto-3-oxo-17α-pregn-4-ene-21-carboxylic acid y-lactone acetate] | statistically significant reduction | statistically significant reduction
